In ChEMBL document CHEMBL1129700, “Utilization of wieland furoxan synthesis for preparation of 4-aryl-1,2,5-oxadiazole-3-yl carbamate derivatives having potent anti-HIV activity” (Bioorg Med Chem Lett, 1996):

Tests used:
MT4 [1] = test: Tested for 50% cytotoxic concentration based on the reduction of viability in mock-infected MT-4 cells; type: functional; conditions: Homo sapiens
MT4 [2] = test: Tested for 50% effective concentration based on the inhibition of HIV-I induced cytopathic effect in MT-4 cells; type: functional, cell-based; conditions: Homo sapiens
[3] = Selectivity index based on the ratio of CC50 to EC50; type: functional

CN(C)C(=O)Oc1nsnc1-c1ccccc1
CC50 (MT4 [1]): 46.8 µM
EC50 (MT4 [2]): 5.6 µM
SI [3]: 8

CCCN(C)C(=O)Oc1nsnc1-c1c(Cl)cccc1Cl
SI [3]: 10000

CCCN(C)C(=O)Oc1no[n+]([O-])c1-c1ccccc1
CC50 (MT4 [1]): 25 µM
EC50 (MT4 [2]): 20 µM
SI [3]: 1

CCCN(C)C(=O)Oc1no[n+]([O-])c1-c1c(Cl)cccc1Cl
CC50 (MT4 [1]): 8.6 µM
EC50 (MT4 [2]): 0.12 µM
SI [3]: 72

Cc1cn([C@H]2C[C@H](N=[N+]=[N-])[C@@H](CO)O2)c(=O)[nH]c1=O [ZIDOVUDINE]
CC50 (MT4 [1]): 3.2 µM
EC50 (MT4 [2]): 0.004 µM
SI [3]: 800

CCCN(C)C(=O)Oc1nonc1-c1ccccc1
CC50 (MT4 [1]): 13 µM
EC50 (MT4 [2]): 2 µM
SI [3]: 6.5
